Data as given in patent US20030086900A1, “Method of treatment using ligand-immunogen conjugates” (priority 2001, published 2003).

System: M109 cells
Experiment: Survival of mice with M109 lung tumor implants, folate-MDP therapy
Type: in vivo
Conditions: female Balb/c mice, M109 cells i.p.; folate-MDP 15 nmoles/kg, IL-2 5,000 IU/dose, IFN-α 25,000 U/dose; injections on days 7, 8, 9, 11, 14
Method: Female Balb/c mice were injected on day 0 with 5×10^5 M109 cells, a syngeneic lung cancer cell line that expresses high levels of the folate receptor. In an effort to reduce the time required to obtain long-term survival data, the tumor cells were implanted intraperitoneally close to the liver. Cancer loci were then allowed to attach and grow. The animals were then injected with PBS (control) or were co-injected with folate-muramyl dipeptide (MDP) (15 nmoles/kg), IL-2 (5,000 IU/dose), and IFN-α (25,000 U/dose) on days 7, 8, 9, 11, and 14 after tumor cell implantation. Folate was conjugated to MDP via a gamma carboxyl-linked ethylene diamine bridge. Additional animals were injected with 80 nmoles/kg MDP, 15 nmoles/kg folate-MDP, or 80 nmoles/kg MDP and IL-2 and IFN-α at the concentrations specified above. The efficacy of this immunotherapy was evaluated by monitoring survival as a function of time of folate-MDP treated mice compared to control animals.

## folate-muramyl dipeptide [folate-MDP]
  effect on long-term survival of tumor-bearing mice: negligible effect
